Reference: publication PMC11118514, “Eminent Antimicrobial Peptide Resistance in Zymomonas mobilis: A Novel Advantage of Intrinsically Uncoupled Energetics” (Antibiotics, 2024)
Values after ≈ are worked out from the molar mass of the structure shown. Where a SMILES comes first, the peptide text is derived from it. Where no end group is shown, it is not given here.

Experiments:
E. Cancerogenus = conditions: cited from earlier work
Text: Table 1 Minimal inhibitory concentrations (MICs) of AMPs against selected bacteria, μg/mL. | column: From / E. Cancerogenus

S. aureus [1] = conditions: cited from earlier work
Text: Table 1 Minimal inhibitory concentrations (MICs) of AMPs against selected bacteria, μg/mL. | column: From / S. aureus

P. aeroginosa = conditions: cited from earlier work
Text: Table 1 Minimal inhibitory concentrations (MICs) of AMPs against selected bacteria, μg/mL. | column: From / P. aeroginosa

Z. mobilis [2] = format: cell-based, Zymomonas mobilis
Experimental: Z. mobilis strains, Zm6 (ATCC 29191), E. coli (ATCC 25404) and an S. aureus strain (DSM 20231) were subjected to screening for AMP resistance. Z. mobilis strains were routinely grown on the standard culture medium containing (per liter) 5 g of yeast extract, 1 g of KH2PO4, 1 g of (NH4) 2SO4, and 0.5 g of MgSO4·7H2O, supplemented with 40 mL of 50% glucose solution. E. coli was grown on LB medium, containing (per liter) 10 g of tryptone, 5 g of yeast extract, and 10 g of NaCl. S. aureus was grown on Mueller Hinton Broth, 21 g per 1 L, at 30 °C.
(§1) The quantification of antimicrobial resistance against various AMPs was conducted by monitoring the bacterial growth in the presence of peptides at serial dilutions. This assay was performed in 96-well plates using the Infinite® M200 PRO Multimode Microplate Reader from Tecan in Maennedorf, Switzerland, as described in our recent report. All bacterial strains were cultivated at 32 °C for 13–18 h at 200 rpm. Optical density measurements (λ = 550 nm) were automatically recorded at 10 min intervals. The antimicrobial resistance activity was quantified as the minimum inhibitory concentration (MIC), which represents the lowest peptide concentration capable of preventing the growth of bacterial cells.

E. faecium = conditions: cited from earlier work
Text: Table 1 Minimal inhibitory concentrations (MICs) of AMPs against selected bacteria, μg/mL. | column: From / E. faecium

K. pneumonia = conditions: cited from earlier work
Text: Table 1 Minimal inhibitory concentrations (MICs) of AMPs against selected bacteria, μg/mL. | column: From / K. pneumonia

E. coli [3] = conditions: cited from earlier work
Text: Table 1 Minimal inhibitory concentrations (MICs) of AMPs against selected bacteria, μg/mL. | column: From / E. coli

P. acne = conditions: cited from earlier work
Text: Table 1 Minimal inhibitory concentrations (MICs) of AMPs against selected bacteria, μg/mL. | column: From / P. acne

[4] = test system: E. coli cell suspension (proton-dependent ATP synthase of the cytoplasmic membrane); assay: ATP synthesis induced by artificial transmembrane pH gradient; format: cell-based, Escherichia coli; conditions: E. coli starved cells; 10 μM, added 5 min before pH shift of 3.5–4.0 units; luciferin–luciferase
Experimental: (§2) Here, we assumed that any effect the AMPs exerted on the pH-induced ATP synthesis indicated a direct interaction between the peptide and the cytoplasmic membrane. After the induction of a pH gradient of 3.5–4.0 units in cell suspensions of both Z. mobilis and E. coli, we observed an abrupt increase in the intracellular ATP concentration, reaching its maximum value within a time span between 30 sec and 1 min. The magnitude of the observed ATP concentration rise approximately corresponded to previously published values. […] When added in amounts below the threshold value (Figure 4a,b), peptides had no inhibitory effect on the ATP response. […] Yet, such an effect elicits a much stronger physiological response in E. coli than in Z. mobilis.
(§3) ATP synthase activity induced by an artificial pH gradient was measured in non-growing starved cell suspensions. For the preparation of non-growing cell suspension, cells were harvested in the late exponential phase, sedimented, washed, and resuspended in 100 mM potassium phosphate buffer (pH 7.0), to a biomass concentration of 1.5–2.0 mg dry wt /mL. […] For ATP determination, 20 μL samples were quenched in ice-cold 10% TCA and assayed by the standard luciferin–luciferase method using a TECAN Infinite 200Pro microplate reader (Tecan, Männedorf, Switzerland). […]

[5] = test system: Z. mobilis cell suspension (proton-dependent ATP synthase of the cytoplasmic membrane); assay: as above; format: cell-based, Zymomonas mobilis; conditions: Z. mobilis starved cells; 10 μM, added 5 min before pH shift of 3.5–4.0 units; luciferin–luciferase
Experimental: as §2, §3

E. coli [6] = assay: Normalized inhibitory concentration (peptide molecules per cell); format: cell-based, Escherichia coli; conditions: added AMP normalized to inoculum size, calculated with E. coli cell size parameters
Text: (§4) We noted, however, that there was a substantial difference between the specific cultivation conditions of Z. mobilis and the rest of the tested bacteria: Z. mobilis required a higher concentration of inoculum. A higher amount of biomass introduced at the start of cultivation might mitigate the antimicrobial effect of AMPs, since this decreases the number of peptide molecules available to penetrate the membrane of each individual cell. Indeed, it was shown that at least […] bound peptide molecules per bacterial cell are needed to kill it. […] For these experiments, we chose one Gram-positive and one Gram-negative model strain (S.aureus and E.coli, respectively) and two AMPs, RP556 and R10. […]
as §1, with “All bacterial strains were cultivated at 32 °C for 13–18 h at 200 rpm.” left out

Z. mobilis [7] = assay: as above; format: cell-based, Zymomonas mobilis; conditions: added AMP normalized to inoculum size, calculated with E. coli cell size parameters
Text: as §4
as §1, with “All bacterial strains were cultivated at 32 °C for 13–18 h at 200 rpm.” left out

S. aureus [8] = assay: as above; format: cell-based; conditions: added AMP normalized to inoculum size, calculated with E. coli cell size parameters
Text: as §4
as §1, with “All bacterial strains were cultivated at 32 °C for 13–18 h at 200 rpm.” left out

Compound | MIC (E. Cancerogenus) [µg/mL] | MIC (S. aureus [1]) [µg/mL] | MIC (P. aeroginosa) [µg/mL] | MIC (Z. mobilis [2]) [µg/mL] | MIC (E. faecium) [µg/mL] | MIC (K. pneumonia) [µg/mL] | MIC (E. coli [3]) [µg/mL] | MIC (P. acne) [µg/mL] | effect on pH gradient-induced ATP synthesis [4] | effect on pH gradient-induced ATP synthesis [5] | Normalized inhibitory concentration (E. coli [6]) | Normalized inhibitory concentration (Z. mobilis [7]) | Normalized inhibitory concentration (S. aureus [8])
CC(C)[C@H](NC(=O)[C@H](Cc1ccc(O)cc1)NC(=O)[C@H](Cc1c[nH]c2ccccc12)NC(=O)[C@H](CS)NC(=O)[C@H](Cc1ccccc1)NC(=O)CN)C(=O)N[C@@H](CS)C(=O)N[C@@H](C)C(=O)N[C@@H](CCCNC(=N)N)C(=O)N[C@@H](CCCNC(=N)N)C(=O)N[C@@H](CC(N)=O)C(=O)NCC(=O)N[C@@H](C)C(=O)N[C@@H](CCCNC(=N)N)C(=O)N[C@H](C(=O)N[C@@H](CS)C(=O)N[C@@H](Cc1ccc(O)cc1)C(=O)N[C@@H](CCCNC(=N)N)C(=O)N[C@@H](CCCNC(=N)N)C(=O)N[C@@H](CS)C(=O)N[C@@H](CC(N)=O)C(=O)O)C(C)C [AA139] (H-GFCWYVCARRNGARVCYRRCN-OH; N-terminus and C-terminus assumed) | 8.0 (≈ 3.13 µM) | 8.0 (≈ 3.13 µM) | 16.0 (≈ 6.26 µM) | 250.0 (≈ 97.9 µM) | 16.0 (≈ 6.26 µM) | 8.0 (≈ 3.13 µM) | 4.0 (≈ 1.57 µM) | 63.0 (≈ 24.7 µM) |  |  |  |  | 
N#CC(C#N)=NNc1cccc(Cl)c1 [ClCCP] |  |  |  |  |  |  |  |  | almost complete de-energization and a dramatic drop of the ATP yield | almost complete de-energization and a dramatic drop of the ATP yield |  |  | 
CC(C)C[C@H](NC(=O)[C@H](CS)NC(=O)[C@H](Cc1ccccc1)NC(=O)[C@@H](N)CCCCN)C(=O)N[C@@H](CCCCN)C(=O)N[C@@H](Cc1ccccc1)C(=O)N[C@@H](CS)C(=O)N[C@@H](Cc1ccccc1)C(=O)N[C@@H](CCCCN)C(=O)NCC(=O)N[C@@H](Cc1ccccc1)C(=O)N[C@@H](CS)C(=O)N[C@@H](Cc1ccccc1)C(=O)N[C@@H](CCCCN)C(=O)N[C@@H](C)C(=O)N[C@@H](CS)C(=O)NCC(=O)N[C@@H](CCCCN)C(=O)O [R11] (H-KFCLKFCFKGFCFKACGK-OH; N-terminus and C-terminus assumed) | 63.0 (≈ 29.9 µM) | 16.0 (≈ 7.6 µM) | 63.0 (≈ 29.9 µM) | 250.0 (≈ 119 µM) | 16.0 (≈ 7.6 µM) | 63.0 (≈ 29.9 µM) | 125.0 (≈ 59.4 µM) | 0.3 (≈ 0.142 µM) |  |  |  |  | 
CC[C@H](C)[C@H](NC(=O)CNC(=O)[C@H](CCCCN)NC(=O)[C@H](Cc1ccc(O)cc1)NC(=O)[C@H](CS)NC(=O)[C@@H](NC(=O)[C@H](CCCCN)NC(=O)[C@H](Cc1ccccc1)NC(=O)[C@H](CS)NC(=O)[C@H](Cc1c[nH]c2ccccc12)NC(=O)[C@@H](N)CCCNC(=N)N)C(C)C)C(=O)N[C@@H](CS)C(=O)N[C@@H](Cc1ccc(O)cc1)C(=O)N[C@@H](CCCCN)C(=O)N[C@@H](CCCCN)C(=O)N[C@@H](CS)C(=O)N[C@@H](CCCCN)C(=O)O [RP556] (H-RWCFKVCYKGICYKKCK-OH; N-terminus and C-terminus assumed) | 4.0 (≈ 1.85 µM) | 1.0 (≈ 0.464 µM) | 2.0 (≈ 0.927 µM) |  | 2.0 (≈ 0.927 µM) | 4.0 (≈ 1.85 µM) | 4.0 (≈ 1.85 µM) | 2.0 (≈ 0.927 µM) |  |  | 2.93 × 10^7 peptide molecules per cell | 1.68 × 10^10 peptide molecules per cell | 2.43 × 10^7 peptide molecules per cell
FAKALKALLKALKAL [Oligo10] | 63.0 | 4.0 | 63.0 | 31.0 | 16.0 | 63.0 | 16.0 | 2.0 |  |  |  |  | 
IAKKFWKKFWKFWKIFKKIA [R12] | 31.0 | 8.0 | 4.0 | 63.0 | 16.0 | 31.0 | 8.0 | 0.5 |  |  |  |  | 
IAKKFWPKFWKFWKIFKKIA [R13] | 31.0 | 4.0 | 4.0 | 63.0 | 16.0 | 8.0 | 4.0 | 0.3 |  |  |  |  | 
KIAKRIWKRIWKILRRR [PA13] | 16.0 | 2.0 | 16.0 | 63.0 | 4.0 | 16.0 | 31.0 | 16.0 |  |  |  |  | 
KKIAKKFWKKFWKFWKIFKK [R10] | 16.0 | 4.0 | 2.0 | 31.0 | 4.0 | 8.0 | 2.0 | 0.5 |  |  | 2.30 × 10^7 peptide molecules per cell | 6.58 × 10^9 peptide molecules per cell | 1.98 × 10^8 peptide molecules per cell
KKIAKKFWKKFWKFWPKFWKIFKK [R14] | 16.0 | 8.0 | 4.0 | 63.0 | 8.0 | 4.0 | 16.0 | 1.0 |  |  |  |  | 
VKRWKKWWRKWKKWV [LZ1] | 16.0 | 2.0 | 8.0 |  | 4.0 | 16.0 | 31.0 | 8.0 |  |  |  |  | 
